Source: PMC4634248 (Influenza and Other Respiratory Viruses, 2013)
“Also recorded” adds a separate entry of the source.

System: NA activity of A(H1N1)pdm09 viruses with the H275Y substitution
Type: biochemical, influenza A(H1N1)pdm09 virus

SMILES: [H]/N=C(\N)N[C@H]1C=C(C(=O)O)O[C@@H]([C@H](OC)[C@H](O)CO)[C@@H]1NC(C)=O [laninamivir]
- IC50 values of H275Y mutants relative to those of viruses with 275H: comparable
- resistance / sensitivity of H275Y mutant viruses to the NA inhibitor: sensitive

SMILES: CCC(CC)O[C@@H]1C=C(C(=O)O)C[C@H](N)[C@H]1NC(C)=O [oseltamivir, oseltamivir carboxylate]
- fold increased IC50 values (decreased susceptibility) of H275Y mutant viruses compared with 275H: about 400 fold
- resistance / sensitivity of H275Y mutant viruses to the NA inhibitor: resistance; also recorded: resistant

SMILES: CCC(CC)[C@H](NC(C)=O)[C@@H]1[C@H](O)[C@@H](C(=O)O)C[C@H]1N=C(N)N [peramivir]
- fold increased IC50 values (decreased susceptibility) of H275Y mutant viruses compared with 275H: ~140 fold
- resistance / sensitivity of H275Y mutant viruses to the NA inhibitor: resistance; also recorded: resistant

SMILES: CC(=O)N[C@H]1[C@H]([C@H](O)[C@H](O)CO)OC(C(=O)O)=C[C@@H]1N=C(N)N [zanamivir]
- IC50 values of H275Y mutants relative to those of viruses with 275H: comparable
- resistance / sensitivity of H275Y mutant viruses to the NA inhibitor: sensitive
